We go through 24 compounds from US6147097A, “Imidazole derivatives as anti-HIV agents” (Shionogi & Co., Ltd., priority 1994, dated 2000).

In brackets after ≈: the same amount, converted by molar mass. Read-outs that look alike come from different tables or passages of the source. A value given as a limit tells only on which side of the number the result lay.

Series [1] relates to HIV (HTLV-IIIB strain). Description: microbe, parasite or virus in culture. The conditions noted are these: Human immunodeficiency virus 1, IIIB, MT4, 120 h. The class given is cell-based. Put shortly: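 Protection from virus was read as viable-cell MTT conversion to formazan after 5 days at 37° C. The cultures contained MT-4 cells (3.5×10^4/well), compound dilutions and 60 pfu HIV per well.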

Series [2] can be described thus: cytotoxicity in MT-4 cells (MTT, culture medium in place of HIV). The class given is cell-based. The conditions noted are these: human; MT-4 cells, no virus, 37° C., 5 days, MTT; Table 3; read-out: CC50. The method, boiled down: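 Uninfected readout: compound-treated MT-4 cultures, 3.5×10^4 cells/well, received medium in place of virus and were kept 5 days at 37° C. Viability measured by 1 h MTT reduction, solubilized formazan read at 560/690 nm relative to control wells.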

In series [3] the target is T1, purified recombinant HIV-1 reverse transcriptase (Human immunodeficiency virus type 1 group M subtype B, UniProt P04585).
T1 construct: purified recombinant HIV-1 reverse transcriptase; made in house; host or cells: Escherichia coli
In words: reverse transcriptase inhibition, poly(rA)/(dT) template primer, [3H]dTTP uptake. The class given is biochemical. Put shortly: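 Inhibition reported as percent reduction of [3H]dTTP incorporation relative to solvent control, after 1 h at 37 °C at pH 8.3. Recombinant RT from E. coli, poly(rA) template with oligo(dT) primer, 4 μM unlabeled dTTP as substrate; product collected on DEAE filter mats.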

Setting [4] is: MT-4 cells, 60 pfu HIV per well, 37° C., 5 days, MTT, Tables 1 and 2, read-out: EC50.

By EC50 is commonly meant the concentration that produces a half-maximal response. As a reminder, the CC50 is the concentration that lowers cell viability or growth by half. One may read the IC50 as the concentration that gives 50% inhibition. In the case of `CC(C)c1nc(C=O)n(C)c1Sc1cc(Cl)cc(Cl)c1` [Compound I-7, 5-(3,5-dichlorophenylthio)-4-isopropyl-1-methyl-1H-imidazole-2-carbaldehyde], in series [1] (setting [4]), the EC50 came out at 0.13 µg/mL (≈ 0.395 µM). Besides, in series [2], the CC50 at 120 h lay in the range of 10 to 100 µg/mL (≈ 30.4 to 304 µM). The IC50 in series [3] was 131000 nM.
For `CC(C)c1nc(CO)n(C)c1Sc1cc(Cl)cc(Cl)c1` [Compound I-8, [5-(3,5-dichlorophenylthio)-4-isopropyl-1-methyl-1H-imidazol-2-yl]methanol], in that order: 0.016 µg/mL (≈ 0.0483 µM), 12.5 µg/mL (≈ 37.7 µM) and 3020 nM.
The matching figures for `Cc1cc(C)cc(Sc2c(C(C)C)nc(CO)n2C)c1` [Compound I-9, [5-(3,5-dimethylphenylthio)-4-isopropyl-1-methyl-1H-imidazol-2-yl]methanol]: 0.008 µg/mL (≈ 0.0275 µM), 10 µg/mL (≈ 34.4 µM) and 8260 nM.
The matching figures for `Cc1cc(C)cc(Sc2c(C(C)C)nc(C=NO)n2C)c1` [Compound I-10, 5-(3,5-dimethylphenylthio)-4-isopropyl-1-methyl-1H-imidazole-2-carbaldehyde oxime]: 1 µg/mL (≈ 3.3 µM), greater than 100 µg/mL and greater than 330000 nM.
With `Cc1cc(C)cc(Sc2c(C(C)C)nc(C=NN)n2C)c1` [Compound I-11, 5-(3,5-dimethylphenylthio)-4-isopropyl-1-methyl-1H-imidazole-2-carbaldehyde hydrazone], the EC50 in series [1] (setting [4]) was found to be 0.25 µg/mL (≈ 0.827 µM). The CC50 at 120 h in series [2] lay within 1 to 10 µg/mL (≈ 3.31 to 33.1 µM). In series [3], the IC50 was 54600 nM.
For `CC(C)C(=O)c1nc(C(C)C)c(Sc2cc(Cl)cc(Cl)c2)n1C` [Compound I-12, [5-(3,5-dichlorophenylthio)-4-isopropyl-1-methyl-1H-imidazol-2-yl] isopropyl ketone], in that order: 50 µg/mL (≈ 135 µM), 50 to 100 µg/mL (≈ 135 to 269 µM) and greater than 269000 nM.
Consider `CC(C)c1nc(CO)n(C)c1Sc1cccc(Cl)c1` [Compound I-13, [5-(3-chlorophenylthio)-4-isopropyl-1-methyl-1H-imidazol-2-yl]methanol], for which the EC50 in series [1] (setting [4]) was 0.06 µg/mL (≈ 0.202 µM). For the same compound, the CC50 at 120 h in series [2] turned out to be 25 µg/mL (≈ 84.2 µM). Further, the IC50 in series [3] was 2700 nM.
The matching figures for `CC(C)c1nc(CO)n(C)c1Sc1cccc([N+](=O)[O-])c1` [Compound I-14, [4-isopropyl-1-methyl-5-(3-nitrophenylthio)-1H-imidazol-2-yl]methanol]: 0.03 µg/mL (≈ 0.0976 µM), 12.5 to 25 µg/mL (≈ 40.7 to 81.3 µM) and 4230 nM.
The matching figures for `CCCCn1c(CO)nc(C(C)C)c1Sc1cc(Cl)cc(Cl)c1` [Compound I-15, [1-n-butyl-5-(3,5-dichlorophenylthio)-4-isopropyl-1H-imidazol-2-yl]methanol]: 0.005 to 0.01 µg/mL (≈ 0.0134 to 0.0268 µM), 6.3 to 12.5 µg/mL (≈ 16.9 to 33.5 µM) and 2010 nM.
As to `CC(C)c1nc(CO)n(Cc2ccccc2)c1Sc1cc(Cl)cc(Cl)c1` [Compound I-16, [1-benzyl-5-(3,5-dichlorophenylthio)-4-isopropyl-1H-imidazol-2-yl]methanol], in series [1] (setting [4]), the EC50 lay within 0.008 to 0.016 µg/mL (≈ 0.0196 to 0.0393 µM). The CC50 at 120 h in series [2] fell in the range of 12.5 to 25 µg/mL (≈ 30.7 to 61.4 µM). Moreover, in series [3], the IC50 is 3680 nM.
Consider `C=CCn1c(CO)nc(C(C)C)c1Sc1cccc(Cl)c1` [Compound I-17, [1-allyl-5-(3-chlorophenylthio)-4-isopropyl-1H-imidazol-2-yl]methanol], for which the EC50 in series [1] (setting [4]) fell in the range of 0.005 to 0.01 µg/mL (≈ 0.0155 to 0.031 µM). Also, the CC50 at 120 h in series [2] was 6.3 to 12.5 µg/mL (≈ 19.5 to 38.7 µM). Further, the IC50 in series [3] was less than 2480 nM.
Compound `C=CCn1c(CO)nc(C(C)C)c1Sc1cc(Cl)cc(Cl)c1` [Compound I-19, [1-allyl-5-(3,5-dichlorophenylthio)-4-isopropyl-1H-imidazol-2-yl]methanol] yielded an EC50 in series [1] of 0.004 to 0.008 µg/mL (≈ 0.0112 to 0.0224 µM). Moreover, the CC50 at 120 h in series [2] fell in the range of 10 to 100 µg/mL (≈ 28 to 280 µM). Besides, the IC50 in series [3] was 2020 nM.
Consider `CC(C)c1nc(CO)n(Cc2ccccc2)c1Sc1cccc(Cl)c1` [Compound I-20, [1-benzyl-5-(3-chlorophenylthio)-4-isopropyl-1H-imidazol-2-yl]methanol], for which the EC50 in series [1] (setting [4]) was 0.008 µg/mL (≈ 0.0215 µM). The CC50 at 120 h in series [2] was 6.3 to 12.5 µg/mL (≈ 16.9 to 33.5 µM). The IC50 in series [3] was 5630 nM.
For `CC(C)c1nc(CO)n(Cc2ccccc2)c1Sc1cccc([N+](=O)[O-])c1` [Compound I-21, [1-benzyl-4-isopropyl-5-(3-nitrophenylthio)-1H-imidazol-2-yl]methanol], in that order: 0.008 µg/mL (≈ 0.0209 µM), 6.3 to 12.5 µg/mL (≈ 16.4 to 32.6 µM) and 7560 nM.
For `C=CCn1c(CO)nc(C(C)C)c1Sc1cccc([N+](=O)[O-])c1` [Compound I-22, [1-allyl-4-isopropyl-5-(3-nitrophenylthio)-1H-imidazol-2-yl]methanol], in series [1], the midpoint of the response, the EC50, lay at 0.002 µg/mL (≈ 0.006 µM). In series [2], the CC50 at 120 h was 25 µg/mL (≈ 75 µM). For the same compound, the IC50 in series [3] was 1680 nM.
As to `CCn1c(CO)nc(C(C)C)c1Sc1cccc([N+](=O)[O-])c1` [Compound I-23, [1-ethyl-4-isopropyl-5-(3-nitrophenylthio)-1H-imidazol-2-yl]methanol], the EC50 in series [1] (setting [4]) was 0.004 µg/mL (≈ 0.0124 µM). The CC50 at 120 h in series [2] was 25 µg/mL (≈ 77.8 µM). The IC50 in series [3] is 996 nM.
Regarding `CCCn1c(CO)nc(C(C)C)c1Sc1cccc([N+](=O)[O-])c1` [Compound I-24, [4-isopropyl-5-(3-nitrophenylthio)-1-n-propyl-1H-imidazol-2-yl]methanol], the EC50 in series [1] (setting [4]) was 0.008 µg/mL (≈ 0.0239 µM). In addition, the CC50 at 120 h in series [2] came to 25 µg/mL (≈ 74.5 µM). In addition, the IC50 in series [3] is 2980 nM.
On to `CCn1c(CO)nc(C(C)C)c1Sc1cc(Cl)cc(Cl)c1` [Compound I-25, 2-[5-(3,5-dichlorophenylthio)-1-ethyl-4-isopropyl-1H-imidazol-2-yl]methanol], for which, in series [1] (setting [4]), the EC50 stood at 0.004 µg/mL (≈ 0.0116 µM). Further, the CC50 at 120 h in series [2] was 10 to 100 µg/mL (≈ 29 to 290 µM). For the same compound, the IC50 in series [3] is 1390 nM.
The compound `CCCn1c(CO)nc(C(C)C)c1Sc1cc(Cl)cc(Cl)c1` [Compound I-26, [5-(3,5-dichlorophenylthio)-4-isopropyl-1-n-propyl-1H-imidazol-2-yl]methanol] returned an EC50 in series [1] of 0.004 to 0.008 µg/mL (≈ 0.0111 to 0.0223 µM). For the same compound, the CC50 at 120 h in series [2] fell in the range of 10 to 100 µg/mL (≈ 27.8 to 278 µM). Further, the IC50 in series [3] was 2530 nM.
On to `CC(C)c1nc(CO)n(C(C)C)c1Sc1cc(Cl)cc(Cl)c1` [Compound I-27, [5-(3,5-dichlorophenylthio)-1,4-diisopropyl-1H-imidazol-2-yl]methanol], for which the EC50 in series [1] (setting [4]) is 0.03 µg/mL (≈ 0.0835 µM). Moreover, the CC50 at 120 h in series [2] fell in the range of 10 to 100 µg/mL (≈ 27.8 to 278 µM). Besides, the IC50 in series [3] is 3340 nM.
For `CCn1c(CO)nc(C(C)C)c1Sc1cccc(Cl)c1` [Compound I-28, [1-ethyl-5-(3-chlorophenylthio)-4-isopropyl-1H-imidazol-2-yl]methanol], in that order: 0.002 to 0.004 µg/mL (≈ 0.00643 to 0.0129 µM), 12.5 µg/mL (≈ 40.2 µM) and 643 nM.
With `CCCn1c(CO)nc(C(C)C)c1Sc1cccc(Cl)c1` [Compound I-29, [5-(3-chlorophenylthio)-4-isopropyl-1-n-propyl-1H-imidazol-2-yl]methanol], in series [1] (setting [4]), the EC50 lay within 0.016 to 0.03 µg/mL (≈ 0.0492 to 0.0923 µM). Also, in series [2], the CC50 at 120 h is 12.5 µg/mL (≈ 38.5 µM). Moreover, the IC50 in series [3] was 1850 nM.
Take `CC(C)c1nc(CO)n(CC2CC2)c1Sc1cc(Cl)cc(Cl)c1` [Compound I-30, [1-cyclopropylmethyl-5-(3,5-dichlorophenylthio)-4-isopropyl-1H-imidazol-2-yl]methanol]: the EC50 in series [1] (setting [4]) lay in the range of 0.005 to 0.01 µg/mL (≈ 0.0135 to 0.0269 µM). Moreover, the CC50 at 120 h in series [2] lay within 10 to 100 µg/mL (≈ 26.9 to 269 µM). Also, the IC50 in series [3] was 2450 nM.
The matching figures for `CC(=O)Cn1c(CO)nc(C(C)C)c1Sc1cc(Cl)cc(Cl)c1` [Compound I-32]: 0.06 µg/mL (≈ 0.161 µM), 10 to 100 µg/mL (≈ 26.8 to 268 µM) and 7230 nM.
